From patent US20160046592A1, “PHARMACEUTICAL COMPOSITION FOR THE TREATMENT OF DIABETES” (Ajinomoto Co., Inc., priority 2013, published 2016)
Where a name gives a salt, the structure may show the parent alone.

Biological target: T1, PPAR-α (Homo sapiens, UniProt Q07869)
T1 construct: expressed in transfected cells; host or cells: CV-1 (African green monkey kidney)
T1 sequence (Q07869 167-468): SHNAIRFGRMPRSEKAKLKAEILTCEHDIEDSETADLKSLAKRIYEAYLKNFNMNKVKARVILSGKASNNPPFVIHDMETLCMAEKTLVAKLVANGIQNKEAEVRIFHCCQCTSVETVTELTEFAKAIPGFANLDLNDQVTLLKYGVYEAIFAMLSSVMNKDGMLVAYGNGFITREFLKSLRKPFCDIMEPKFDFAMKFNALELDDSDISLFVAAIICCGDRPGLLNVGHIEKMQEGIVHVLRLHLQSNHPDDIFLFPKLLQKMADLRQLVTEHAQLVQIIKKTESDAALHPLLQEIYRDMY
Experiment: Measurement of PPAR-α activity (GAL4 luciferase reporter assay in CV-1 cells)
Type: cell-based
Conditions: 100(A/B): A = maximum PPAR-α activity of test compound at 3, 10, 30 and 100 μM, B = activity of the compound of WO/2011/058154 at 100 μM, 18 to 20 hours; for Emax: read-out: Relative fold induction (%) of PPAR α
Description: The PPAR-α activity was measured according to the published article (THE JOURNAL OF BIOLOGICAL CHEMISTRY Vol. 270, No 0.22: 12953-12956, 1995).
Plasmids used for the PPAR-α activity measurement were constructed as follows. A luciferase expression plasmid (UAS×5-TK-Luc) used was obtained by introducing a sequence in which five yeast GAL4-binding sequences are linked in tandem into a portion upstream of a thymidine kinase promoter of pTAL-Luc (Takara Bio Inc., 6252-1). A PPAR-α receptor expression plasmid (hGR-GAL4-hPPARα) used was obtained by introducing a human GR N-terminal region (1-76aa), a yeast GAL4 DNA-binding region (1-147aa), and a PPARα ligand-binding region (167-468aa) between Not I and Sal I sites of pExchange-1 Core Vector (Invitrogen, 211176).
A reporter assay was conducted by the following method using African green monkey kidney-derived CV-1 cells. The CV-1 cells were seeded in a 96-well plate (Thermo Fisher Scientific K.K., 4938) at 2×10^4 cells/well by using a 10% FBS-containing DMEM (NACALAI TESQUE, INC., 0845874) medium. After culturing under conditions of 37° C. and 5% CO2 for 2 hours, the cells were transfected with the plasmids. The transfection was conducted by using Lipofectamine LTX (Invitrogen, 15338-100) according to the attached manual. The plasmid solution was prepared by adding a mixture solution of the luciferase expression plasmid and the PPAR-α receptor expression plasmid to OPTI-MEM I (Invitrogen, 11058-021). After the transfection, the test compound was added, and the cells were cultured at 37° C. in the presence of 5% CO2 for 18 to 20 hours. After the culturing, the luciferase activity was measured with Luminescensor JNR (ATTO) by using Bright-Glo (Promega, E2620).
The fold induction of PPAR-α by each test compound was calculated by the following method. A relative fold induction (%) of PPAR-α by the test compound was defined as 100 (A/B), where A represents the maximum value of the PPAR-α activities of the test compound at 3 μM, 10 μM, 30 μM, and 100 μM, and B represents the PPAR-α activity of the compound of WO/2011/058154 at 100 μM.

Row | Compound | Emax | Relative fold induction (%) of PPAR α
1 | COC(C)(C)CN(CC(=O)O)C(=O)c1cccc(COc2ccc(-c3cc(F)c(F)cc3SC)cc2)c1 [Example 23, 2-[[3-[[4-(4,5-Difluoro-2-methylsulfanyl-phenyl)phenoxy]methyl]benzoyl]-(2-methoxy-2-methyl-propyl)amino]acetic Acid] | 22% | –
2 | CS(=O)(=O)CCN(CC(=O)O)C(=O)c1cccc(COc2ccc(-c3cc(F)c(F)c4ccoc34)cc2)c1 [Example 8, 2-[[3-[[4-(4,5-Difluorobenzofuran-7-yl)phenoxy]methyl]benzoyl]-(2-methylsulfonylethyl)amino]acetic Acid] | 11% | –
3 | CC(=O)N1CCC(CN(CC(=O)O)C(=O)c2cccc(COc3ccc(-c4cc(F)c(F)c5ccoc45)cc3)c2)CC1 [Example 81, 2-[(1-Acetyl-4-piperidyl)methyl-[3-[[4-(4,5-difluorobenzofuran-7-yl)phenoxy]methyl]benzoyl]amino]acetic Acid] | 6.4% | –
4 | CSc1cc(F)c(F)cc1-c1ccc(OCc2cccc(C(=O)N(CC(=O)O)CC(=O)N3CCCC3)c2)cc1 [Example 25, 2-[[3-[[4-(4,5-Difluoro-2-methylsulfanyl-phenyl)phenoxy]methyl]benzoyl]-(2-oxo-2-pyrrolidin-1-yl-ethyl)amino]acetic Acid] | 13% | –
5 | COC1CCN(C(=O)c2cccc(COc3ccc(-c4cc(F)c(F)cc4SC)cc3)c2)C1C(=O)O (stereo in doubt) [Example 33, (2S,3S)-1-[3-[[4-(4,5-Difluoro-2-methylsulfanyl-phenyl)phenoxy]methyl]benzoyl]-3-methoxy-pyrrolidine-2-carboxylic Acid] | 13% | –
6 | CSc1cc(F)c(F)cc1-c1ccc(OCc2cccc(C(=O)N(CC(=O)O)Cc3nnc(C)o3)c2)cc1 [Example 73, 2-[[3-[[4-(4,5-Difluoro-2-methylsulfanyl-phenyl)phenoxy]methyl]benzoyl]-[(5-methyl-1,3,4-oxadiazol-2-yl)methyl]amino]acetic Acid] | 16% | –
7 | CS(=O)(=O)CCCN(CC(=O)O)C(=O)c1cccc(COc2ccc(-c3cc(F)c(F)c4ccoc34)cc2)c1 [Example 77, 2-[[3-[[4-(4,5-Difluorobenzofuran-7-yl)phenoxy]methyl]benzoyl]-(3-methylsulfonylpropyl)amino]acetic Acid] | 40% | –
8 | CNS(=O)(=O)CCN(CC(=O)O)C(=O)c1cccc(COc2ccc(-c3cc(F)c(F)cc3SC)cc2)c1 [Example 56, 2-[[3-[[4-(4,5-Difluoro-2-methylsulfanyl-phenyl)phenoxy]methyl]benzoyl]-[2-(methylsulfamoyl)ethyl]amino]acetic Acid] | 8% | –
9 | CSc1cc(F)c(F)cc1-c1ccc(OCc2cccc(C(=O)N(CCC(C)O)CC(=O)O)c2)cc1 (stereo not drawn) [Example 21, 2-[[3-[[4-(4,5-Difluoro-2-methylsulfanyl-phenyl)phenoxy]methyl]benzoyl]-(3-hydroxybutyl)amino]acetic Acid] | 15% | –
10 | CSc1cc(F)c(F)cc1-c1ccc(OCc2cccc(C(=O)N(CC(=O)O)C3CCNCC3)c2)cc1 [Example 36, 2-[[3-[[4-(4,5-Difluoro-2-methylsulfanyl-phenyl)phenoxy]methyl]benzoyl]-(4-piperidyl)amino]acetic Acid Trifluoroacetate] | 8% | –
11 | O=C(O)CN(C(=O)c1cccc(COc2ccc(-c3cc(F)c(F)c4ccoc34)cc2)c1)C1CCNC1=O (stereo not drawn) [Example 82, 2-[[3-[[4-(4,5-Difluorobenzofuran-7-yl)phenoxy]methyl]benzoyl]-(2-oxopyrrolidin-3-yl)amino]acetic Acid] | 11% | –
12 | CSc1cc(F)c(F)cc1-c1ccc(OCc2cccc(C(=O)N(CC(=O)O)Cc3cnco3)c2)cc1 [Example 47, 2-[[3-[[4-(4,5-Difluoro-2-methylsulfanyl-phenyl)phenoxy]methyl]benzoyl]-(oxazol-5-ylmethyl)amino]acetic Acid] | 7.3% | –
13 | CSc1cc(F)c(F)cc1-c1ccc(OCc2cccc(C(=O)N3[C@@H](CO)CC[C@H]3C(=O)O)c2)cc1 [Example 64, (2S,5R)-1-[3-[[4-(4,5-Difluoro-2-methylsulfanyl-phenyl)phenoxy]methyl]benzoyl]-5-(hydroxymethyl)pyrrolidine-2-carboxylic Acid] | 20% | –
14 | CSc1cc(F)c(F)cc1-c1ccc(OCc2cccc(C(=O)N(CCCS(C)(=O)=O)CC(=O)O)c2)cc1 [Example 32, 2-[[3-[[4-(4,5-Difluoro-2-methylsulfanyl-phenyl)phenoxy]methyl]benzoyl]-(3-methylsulfonylpropyl)amino]acetic Acid] | 7.1% | –
15 | CSc1cc(F)c(F)cc1-c1ccc(OCc2cccc(C(=O)N(CC(=O)O)Cc3cn(C)cn3)c2)cc1 [Example 74, 2-[[3-[[4-(4,5-Difluoro-2-methylsulfanyl-phenyl)phenoxy]methyl]benzoyl]-[(1-methylimidazol-4-yl)methyl]amino]acetic Acid] | 16% | –
16 | CSc1cc(F)c(F)cc1-c1ccc(OCc2cccc(C(=O)N3C[C@H](C(N)=O)C[C@H]3C(=O)O)c2)cc1 [Example 61, (2S,4R)-4-Carbamoyl-1-[3-[[4-(4,5-difluoro-2-methylsulfanyl-phenyl)phenoxy]methyl]benzoyl]pyrrolidine-2-carboxylic Acid] | 17% | –
17 | CCNCCN(CC(=O)O)C(=O)c1cccc(COc2ccc(-c3cc(F)c(F)cc3SC)cc2)c1 [Example 43, 2-[[3-[[4-(4,5-Difluoro-2-methylsulfanyl-phenyl)phenoxy]methyl]benzoyl]-[2-(ethylamino)ethyl]amino]acetic Acid Trifluoroacetate] | 9% | –
18 | CSc1cc(F)c(F)cc1-c1ccc(OCc2cccc(C(=O)N3C(C(N)=O)CC[C@H]3C(=O)O)c2)cc1 (single isomer, unassigned) [Example 58, (2S,5S) or (2S,5R)-5-Carbamoyl-1-[3-[[4-(4,5-difluoro-2-methylsulfanyl-phenyl)phenoxy]methyl]benzoyl]pyrrolidine-2-carboxylic Acid] | – | 7.8%
19 | O=C(O)CN(CC1CCOCC1)C(=O)c1cccc(COc2ccc(-c3cc(F)c(F)c4ccoc34)cc2)c1 [Example 9, 2-[[3-[[4-(4,5-Difluorobenzofuran-7-yl)phenoxy]methyl]benzoyl]-(tetrahydropyran-4-ylmethyl)amino]acetic Acid] | 24% | –
20 | CCN(CC)CCN(CC(=O)O)C(=O)c1cccc(COc2ccc(-c3cc(F)c(F)cc3SC)cc2)c1 [Example 24, 2-[2-Diethylaminoethyl-[3-[[4-(4,5-difluoro-2-methylsulfanyl-phenyl)phenoxy]methyl]benzoyl]amino]acetic Acid Trifluoroacetate] | 13% | –
21 | CSc1cc(F)c(F)cc1-c1ccc(OCc2cccc(C(=O)N(CCS(C)(=O)=O)CC(=O)O)c2)cc1 [Example 31, 2-[[3-[[4-(4,5-Difluoro-2-methylsulfanyl-phenyl)phenoxy]methyl]benzoyl]-(2-methylsulfonylethyl)amino]acetic Acid] | 8.4% | –
22 | CSc1cc(F)c(F)cc1-c1ccc(OCc2cccc(C(=O)N(CC(=O)O)Cc3ccn[nH]3)c2)cc1 [Example 54, 2-[[3-[[4-(4,5-Difluoro-2-methylsulfanyl-phenyl)phenoxy]methyl]benzoyl]-(1H-pyrazol-5-ylmethyl)amino]acetic Acid] | 8.7% | –
23 | CN(C)CCN(CC(=O)O)C(=O)c1cccc(COc2ccc(-c3cc(F)c(F)c4ccoc34)cc2)c1 [Example 13, 2-[[3-[[4-(4,5-Difluorobenzofuran-7-yl)phenoxy]methyl]benzoyl]-(2-dimethylaminoethyl)amino]acetic Acid Trifluoroacetate] | 5.3% | –
24 | CSc1cc(F)c(F)cc1-c1ccc(OCc2cccc(C(=O)N3C(CC#N)CC[C@H]3C(=O)O)c2)cc1 (stereo partly drawn) [Example 72, (2S)-5-(Cyanomethyl)-1-[3-[[4-(4,5-difluoro-2-methylsulfanyl-phenyl)phenoxy]methyl]benzoyl]pyrrolidine-2-carboxylic Acid] | 12% | –
